The conditions of data set [1]: rabbit, in vivo.
Procedure: (§2) Male New Zealand White rabbits (3.2-4.9 pounds each) were fed a 0.5% cholesterol chow diet for 12 weeks and randomly assigned to five groups (n=6 each); one control group (CG) and four groups treated with estriol (E), haloperidol (H), low-dose 17-hydroxyprogesterone (LDP), or high-dose 17-hydroxyprogesterone (HDP). Serum cholesterol (C) and triglyceride (T) were measured before and after the treatment period in all groups; serum progesterone was determined only in the LDP and HDP groups. After the treatment period, rabbits were euthanized for histomorphometric analysis of aortic plaque load. The rabbits were treated according to the Animal Welfare Act specifications.
(§3) Vehicle only (CG) and vehicle plus steroid (treated groups) were administered daily subcutaneously. Steroid doses were as follows: estriol, 1 mg/kg; haloperidol, 1 mg/kg for 2 weeks, 10 mg/kg for 2 weeks, and 5 mg/kg for 8 weeks; low-dose 17-hydroxyprogesterone, 10 mg/kg; high-dose 17-hydroxyprogesterone, 90 mg/kg.
(§4) After 91-100 days of treatment, twenty-seven rabbits were euthanized for histomorphometric analysis of aortic plaque load.
A short description of data set [2]: Tolerability / survival during 12-week treatment. Particulars: E: after 18 days; H: at 39 and 71 days, failure to thrive; n=6 per group.
Procedure: as §2, §3, §4
The subject of data set [3] is aortic atherosclerotic plaque in hypercholesterolemic rabbits. The data set can be described thus: Histomorphometric analysis of aortic plaque load (I/M). It counts as in vivo, Male New Zealand White rabbits. The conditions noted are these: for aortic plaque load vs controls after controlling for changes in serum C and T levels (multiple regression): estriol 1 mg/kg (P=0.052), haloperidol 1/10/5 mg/kg (P=0.069); for (I/M)/(I/M)CG: relative to control group, estriol 1 mg/kg, haloperidol 1/10/5 mg/kg s.c. daily. On the procedure:
Five-micron, serial histologic sections (15 each) of 27 ascending aortas were cut from paraffin blocks, stained with hematoxylin and eosin (H&E) and were studied by light microscopy. Images of tissue sections were captured to a Power Macintosh 7300/200 computer by a Hitachi 3-CCD Color Camera (model HV-C20) attached to a Nikon Eclipse E600 microscope. With digital imaging (IPLap Spectrum, Signal Analytics Corporation, Vienna, Va.), they were then analyzed by manual color segmentation by tracting the endothelial surface (intima), internal elastic lamina, and external elastic lamina of each vessel. From segmented images, intimal and medial areas were computed, allowing calculation of intima to media ratios. Plaque load for each aorta was defined as the ratio of intimal area to medial area (I/M).
(§1) Serum lipid levels and I/M were expressed as the mean+SEM for all animals. The changes in lipid levels before and after the treatment period were compared using paired t-tests. The differences between the treatment groups and controls were compared using analysis of variance (ANOVA) techniques. Repeated Measures ANOVA was used to compare the difference in plaque loads among the five groups. Multiple regression models were used to compare the differences in plaque loads between the four treatment groups and the control group, adjusting for the difference in cholesterol and triglyceride levels. P<0.05 was considered statistically significant.

The nature of data set [4]: Quantitative serum lipid analysis (cholesterol, triglyceride) in cholesterol-fed rabbits. The format is in vivo, Male New Zealand White rabbits. The conditions noted are these: change relative to control group; estriol 1 mg/kg; haloperidol 1/10/5 mg/kg s.c. daily.
From the text: as §1

A further data set relates to human monocytes. Put plainly: Inhibition of human monocyte/macrophage Fcγ receptor mediated phagocytosis. It counts as cell-based. The conditions noted are these: 90 min at 37° C.; for % Phagocytic Cells (percent of monocytes/macrophages phagocytosing IgG sensitized cells): buffer control 42%; for PI (phagocytic index, ingested IgG-sensitized cells per 100 monocytes): buffer control 105. How it is done:
The agents to be tested (haloperidol, SCH-23390 and sulpiride) were incubated with human monocytes isolated using lymphocyte separation medium. Incubation was for 90 min at 37° C. Buffer (PBS) treated cells served as a control. At the end of the incubation period, monocytes were exposed to IgG-sensitized cells in accordance with the phagocytic assay of Indik et al, Blood 86:4389 (1995).

In data set [5] the test system is aortic atherosclerosis in hypercholesterolemic rabbits. Put plainly: Gross examination of the aortas (occlusion). It counts as in vivo, Male New Zealand White rabbits. The conditions noted are these: treated animals vs control. From the text: With the control animals, there was about 42% occlusion. With the low dose progesterone there was 6% occlusion and with the high dose progesterone there was 0% occlusion evident.

As for `O=C(CCCN1CCC(O)(c2ccc(Cl)cc2)CC1)c1ccc(F)cc1` [Haloperidol, haloperidol], the “tolerance of dose by rabbits” value in data set [1] is on record as “poor tolerance”. The “rabbits that died or were sacrificed during treatment” value in data set [2] is on record as “two rabbits in he H group were sacrificed”. Besides, in data set [3], the “aortic plaque load vs controls after controlling for changes in serum C and T levels (multiple regression)” value is “lower”; the “(I/M)/(I/M)CG” value was found to be 0.29. In addition, in data set [4], the “Cholesterol Δ/ΔCG” value was 0.86 and the “Triglyceride Δ/ΔCG” value was determined as 0.81. Moreover, in the data set on human monocytes (50 μM PBS/methanol), the “% Phagocytic Cells (percent of monocytes/macrophages phagocytosing IgG sensitized cells)” value is 0% and the “PI (phagocytic index, ingested IgG-sensitized cells per 100 monocytes)” value is listed as 0.

In the case of `CCN1CCCC1CNC(=O)c1cc(S(N)(=O)=O)ccc1OC` (stereo not drawn) [Sulpiride, sulpiride], in the data set with human monocytes (500 μg/ml PBS/methanol), the “% Phagocytic Cells (percent of monocytes/macrophages phagocytosing IgG sensitized cells)” value amounted to 59% and the “PI (phagocytic index, ingested IgG-sensitized cells per 100 monocytes)” value is given as 232.

On to `CN1CCc2cc(Cl)c(O)cc2[C@@H](c2ccccc2)C1` [SCH-23390], for which, in the data set with human monocytes (50 μM PBS/methanol), the “% Phagocytic Cells (percent of monocytes/macrophages phagocytosing IgG sensitized cells)” value came to 16% and the “PI (phagocytic index, ingested IgG-sensitized cells per 100 monocytes)” value turned out to be 38.

As for `C[C@]12CC[C@@H]3c4ccc(O)cc4CC[C@H]3[C@@H]1C[C@@H](O)[C@@H]2O` [E, estriol], the “rabbits that died or were sacrificed during treatment” value in data set [2] was “One rabbit in the E group died”. In data set [3], the “aortic plaque load vs controls after controlling for changes in serum C and T levels (multiple regression)” value is “lower”; the “(I/M)/(I/M)CG” value was found to be 0.02. Also, in data set [4], the “Cholesterol Δ/ΔCG” value is given as 0.71 and the “Triglyceride Δ/ΔCG” value is on record as −0.03. In addition, the “atherosclerosis on gross examination of the aortas (in words)” value in data set [5] is “decreased atherosclerosis”.
